From patent publication US7956053B2, “Inhibitors of tyrosine kinases” (Novartis AG, priority 2002, dated 2011) come the findings set out here.

One experiment addresses KDR (Homo sapiens, UniProt P35968). Briefly: Enzymatic KDR in vitro inhibition. In kind it is biochemical. How it is done:
Test for activity against VEGF-receptor tyrosine kinase. The test is conducted using Flt-1 VEGF-receptor tyrosine kinase. The detailed procedure is as follows: 30 μL kinase solution (10 ng of the kinase domain of Flt-1, Shibuya et al., Oncogene 5, 519-24 [1990]) in 20 mM Tris.HCl pH 7.5, 3 mM manganese dichloride (MnCl2), 3 mM magnesium chloride (MgCl2), 10 μM sodium vanadate, 0.25 mg/mL polyethylenglycol (PEG) 20000, 1 mM dithiothreitol and 3 μg/μL poly(Glu,Tyr) 4:1 (Sigma, Buchs, Switzerland), 8 μM [^33P]-ATP (0.2 μCi), 1% DMSO, and 0 to 100 μM of the compound to be tested are incubated together for 10 minutes at room temperature. The reaction is then terminated by the addition of 10 μL 0.25 M ethylenediaminetetraacetate (EDTA) pH 7. Using a multichannel dispenser (LAB SYSTEMS, USA), an aliquot of 20 μL is applied to a PVDF (=polyvinyl difluoride) Immobilon P membrane (Millipore, Bedford, USA), through a Gibco-BRL microtiter filter manifold and connected to a vacuum. Following complete elimination of the liquid, the membrane is washed 4 times successively in a bath containing 0.5% phosphoric acid (H3PO4) and once with ethanol, incubated for 10 minutes each time while shaking, then mounted in a Hewlett Packard TopCount Manifold and the radioactivity measured after the addition of 10 μL Microscint® (β-scintillation counter liquid). IC50-values are determined by linear regression analysis of the percentages for the inhibition of each compound in at least four concentrations (as a rule 0.01, 0.1, 1.0 and 10 μmol).
(§1) Enzymatic (c-Abl, KDR, Flt3) in vitro inhibition data are presented as % inhibition at 10 μM. The measurements are made as described above in the general description.

In another experiment the target is T1, c-Abl (Homo sapiens, UniProt P00519).
T1 construct: The His-tagged kinase domain of c-Abl is cloned and expressed in the baculovirus/Sf9 system; His; made in house; host or cells: baculovirus/Sf9
T1 sequence (P00519 242-493 limits assumed): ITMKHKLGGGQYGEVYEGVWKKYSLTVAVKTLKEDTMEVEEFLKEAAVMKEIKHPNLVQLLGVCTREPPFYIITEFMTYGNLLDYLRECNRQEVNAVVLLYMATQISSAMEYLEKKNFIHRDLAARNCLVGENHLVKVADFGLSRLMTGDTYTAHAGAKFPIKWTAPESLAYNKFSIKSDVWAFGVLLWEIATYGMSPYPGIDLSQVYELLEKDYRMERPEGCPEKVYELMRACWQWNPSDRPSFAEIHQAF
Briefly: Test for activity against c-Abl protein tyrosine kinase (filter binding assay). In kind it is biochemical. Here is the method:
Test for activity against c-Abl protein tyrosine kinase. The test is conducted as a filter binding assay as follows: The His-tagged kinase domain of c-Abl is cloned and expressed in the baculovirus/Sf9 system as described by Bhat et al., J Biol. Chem. 272, 16170-5 (1997). A protein of 37 kD (c-Abl kinase) is purified by a two-step procedure over a Cobalt metal chelate column followed by an anion exchange column with a yield of 1-2 mg/L of Sf9 cells. The purity of the c-Abl kinase is >90% as judged by SDS-PAGE after Coomassie blue staining. The assay contains: c-Abl kinase (50 ng), 20 mM Tris.HCl, pH 7.5, 10 mM MgCl2, 10 μM Na3VO4, 1 mM DTT and 0.06 μCi/assay [γ^33 P]-ATP (5 μM ATP) using 30 μg/mL poly-Ala,Glu,Lys,Tyr-6:2:5:1 (Poly-AEKY, Sigma P1152) in the presence of 1% DMSO, total volume of 30 μL. Reactions are terminated by adding 10 μL of 250 mM EDTA, and 30 μL of the reaction mixture is transferred onto Immobilon-PVDF membrane (Millipore, Bedford, Mass., USA) previously soaked for 5 min with methanol, rinsed with water, then soaked for 5 min with 0.5% H3PO4 and mounted on vacuum manifold with disconnected vacuum source. After spotting all samples, vacuum is connected and each well rinsed with 200 μL 0.5% H3PO4. Membranes are removed and washed on a shaker with 0.5% H3PO4 (4 times) and once with ethanol. Membranes are counted after drying at ambient temperature, mounting in Packard TopCount 96-well frame, and addition of 10 μL/well of Microscint™ (Packard).
as §1

Sequence of KDR (P35968 20-1356): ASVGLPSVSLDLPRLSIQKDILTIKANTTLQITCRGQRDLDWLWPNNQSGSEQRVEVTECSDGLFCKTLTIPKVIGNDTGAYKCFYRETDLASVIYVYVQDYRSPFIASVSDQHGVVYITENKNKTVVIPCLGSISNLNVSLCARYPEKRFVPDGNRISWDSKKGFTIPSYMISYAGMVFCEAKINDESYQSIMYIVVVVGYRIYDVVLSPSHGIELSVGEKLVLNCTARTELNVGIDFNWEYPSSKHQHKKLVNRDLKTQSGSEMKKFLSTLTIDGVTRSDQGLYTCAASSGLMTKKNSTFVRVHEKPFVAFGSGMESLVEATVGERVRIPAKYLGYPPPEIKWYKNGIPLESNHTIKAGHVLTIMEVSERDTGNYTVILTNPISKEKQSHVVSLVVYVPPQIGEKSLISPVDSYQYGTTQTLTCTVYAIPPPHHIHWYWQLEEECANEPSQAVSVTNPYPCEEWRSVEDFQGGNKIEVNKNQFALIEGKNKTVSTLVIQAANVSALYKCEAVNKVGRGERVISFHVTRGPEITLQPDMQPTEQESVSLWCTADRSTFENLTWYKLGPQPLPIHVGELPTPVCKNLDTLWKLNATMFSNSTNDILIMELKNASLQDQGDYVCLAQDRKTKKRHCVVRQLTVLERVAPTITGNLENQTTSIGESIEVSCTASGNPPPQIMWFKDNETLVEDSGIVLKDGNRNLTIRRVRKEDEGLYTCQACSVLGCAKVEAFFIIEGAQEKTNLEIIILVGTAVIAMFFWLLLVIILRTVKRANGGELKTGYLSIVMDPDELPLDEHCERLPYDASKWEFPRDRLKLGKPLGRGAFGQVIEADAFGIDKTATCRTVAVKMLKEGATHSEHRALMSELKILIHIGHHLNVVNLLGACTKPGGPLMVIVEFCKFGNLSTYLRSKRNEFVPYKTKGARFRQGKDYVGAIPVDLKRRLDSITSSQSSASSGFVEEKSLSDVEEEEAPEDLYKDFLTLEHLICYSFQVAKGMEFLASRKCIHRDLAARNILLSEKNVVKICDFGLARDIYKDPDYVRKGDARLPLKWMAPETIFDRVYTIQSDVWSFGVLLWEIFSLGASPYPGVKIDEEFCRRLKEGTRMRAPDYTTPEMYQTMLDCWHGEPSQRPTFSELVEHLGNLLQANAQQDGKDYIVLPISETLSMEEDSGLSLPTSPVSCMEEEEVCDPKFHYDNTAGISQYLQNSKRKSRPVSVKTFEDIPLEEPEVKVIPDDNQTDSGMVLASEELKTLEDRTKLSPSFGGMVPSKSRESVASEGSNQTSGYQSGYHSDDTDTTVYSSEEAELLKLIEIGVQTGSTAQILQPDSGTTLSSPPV

What is called inhibition is the drop in the measured response relative to a control, in per cent. Low readings indicate a weak effect, high ones a strong effect. With `Cc1ccc(C(=O)NCCc2cnc(O)nc2O)cc1Nc1nccc(-c2cccnc2)n1` [Example 12, N-[2-(2,4-Dihydroxy-5-pyrimidinyl)ethyl]-4-methyl-3-[[4-(3-pyridinyl)-2-pyrimidinyl]amino]benzamide], the results for the inhibition at 10 µM at KDR and on c-Abl were 33% and 22%, respectively.
For `Cc1ccc(C(=O)NC2CCCCC2)cc1Nc1nccc(-c2cccnc2)n1` [Example 13, N-Cyclohexyl-4-methyl-3-[[4-(3-pyridinyl)-2-pyrimidinyl]amino]benzamide] the same measures were 48% and 78%.
Taken in the same sequence, the figures for `Cc1ccc(C(=O)N[C@H]2CCCCNC2=O)cc1Nc1nccc(-c2cccnc2)n1` [Example 14, N-[(3S)-Hexahydro-2-oxo-1H-azepin-3-yl]-4-methyl-3-[[4-(3-pyridinyl)-2-pyrimidinyl]amino]benzamide] were 54% and 49%.
As for `COc1ccc(CCNC(=O)c2ccc(C)c(Nc3nccc(-c4cccnc4)n3)c2)cc1OC` [Example 15, N-[2-(3,4-Dimethoxyphenyl)ethyl]-4-methyl-3-[[4-(3-pyridinyl)-2-pyrimidinyl]amino]benzamide], the inhibition at 10 µM amounted to 23% against KDR and 60% on c-Abl.
For the compound `CCOC(=O)Cc1csc(NC(=O)c2ccc(C)c(Nc3nccc(-c4cccnc4)n3)c2)n1` [Example 16, 2-[[4-Methyl-3-[[4-(3-pyridinyl)-2-pyrimidinyl]amino]benzoyl]amino]-4-thiazoleacetic acid ethyl ester], the inhibition at 10 µM on KDR was 10%; at c-Abl, 42%.
`Cc1ccc(C(=O)NCCCn2ccnc2)cc1Nc1nccc(-c2cccnc2)n1` [Example 17, N-[3-(1H-Imidazol-1-yl)propyl]-4-methyl-3-[[4-(3-pyridinyl)-2pyrimidinyl]amino]benzamide]: the values for the inhibition at 10 µM against KDR and at c-Abl were 62% and 54%, respectively.
Consider `Cc1ccc(C(=O)NCC2CC2)cc1Nc1nccc(-c2cccnc2)n1` [Example 18, N-(Cyclopropylmethyl)-4-methyl-3-[[4-(3-pyridinyl)-2-pyrimidinyl]amino]-benzamide], for which the results for the inhibition at 10 µM at KDR and at c-Abl were 62% and 56%, respectively.
For the compound `COCCNC(=O)c1ccc(C)c(Nc2nccc(-c3cccnc3)n2)c1` [Example 19, N-(2-methoxyethyl)-4-methyl-3-[[4-(3-pyridinyl)-2-pyrimidinyl]amino]benzamide], the inhibition at 10 µM against KDR was 33%; on c-Abl, 41%.
Take `Cc1ccc(C(=O)NCCCN2CCCC2=O)cc1Nc1nccc(-c2cccnc2)n1` [Example 20, 4-Methyl-N-[3-(2-oxo-1-pyrrolidinyl)propyl]-3-[[4-(3-pyridinyl)-2-pyrimidinyl]amino]benzamide]: the inhibition at 10 µM against KDR was found to be 22%; at c-Abl, 56%.
Regarding `Cc1ccc(C(=O)N(C)Cc2ccccc2)cc1Nc1nccc(-c2cccnc2)n1` [Example 21, N,4-Dimethyl-N-(phenylmethyl)-3-[[4-(3-pyridinyl)-2-pyrimidinyl]amino]-benzamide], the results for the inhibition at 10 µM at KDR and at c-Abl were 93% and 30%, respectively.
In the case of `CC(=O)Nc1ccc(NC(=O)c2ccc(C)c(Nc3nccc(-c4cccnc4)n3)c2)cc1` [Example 22, N-[4-(Acetylamino)phenyl]-4-methyl-3-[[4-(3-pyridinyl)-2-pyrimidinyl]amino]benzamide], the inhibition at 10 µM on KDR worked out at 7%; at c-Abl it was 59%.
As to `COc1ccc(NC(=O)c2ccc(C)c(Nc3nccc(-c4cccnc4)n3)c2)c(C)c1` [Example 23, N-(4-Methoxy-2-methylphenyl)-4-methyl-3-[[4-(3-pyridinyl)-2-pyrimidinyl]amino]benzamide], the values for the inhibition at 10 µM on KDR and on c-Abl were 67% and 90%, respectively.
`Cc1ccc(C(=O)NCc2ccc(S(C)(=O)=O)cc2)cc1Nc1nccc(-c2cccnc2)n1` [Example 24, 4-Methyl-N-[4-(methylsulfonyl)benzyl]-3-[[4-(3-pyridinyl)-2-pyrimidinyl]amino]benzamide]: the inhibition at 10 µM came out at 70% against KDR and 80% on c-Abl.
Consider `Cc1ccc(C(=O)NCc2ccc(N(C)C)cc2)cc1Nc1nccc(-c2cccnc2)n1` [Example 25, N-[[4-(Dimethylamino)phenyl]methyl]-4-methyl-3-[[4-(3-pyridinyl)-2-pyrimidinyl]amino]benzamide], for which the inhibition at 10 µM at KDR amounted to 73%; on c-Abl it was 44%.
`Cc1ccc(C(=O)NCC(N)=O)cc1Nc1nccc(-c2cccnc2)n1` [Example 26, N-(2-Amino-2-oxoethyl)-4-methyl-3-[[4-(3-pyridinyl)-2-pyrimidinyl]amino]benzamide]: the inhibition at 10 µM came to 56% at KDR and 55% on c-Abl.
On to `COC(=O)CNC(=O)c1ccc(C)c(Nc2nccc(-c3cccnc3)n2)c1` [Example 27, N-[4-Methyl-3-[[4-(3-pyridinyl)-2-pyrimidinyl]amino]benzoyl]glycine methyl ester], for which the inhibition at 10 µM is 51% against KDR and 54% on c-Abl.
Taken in the same sequence, the figures for `COC(=O)CCNC(=O)c1ccc(C)c(Nc2nccc(-c3cccnc3)n2)c1` [Example 28, N-[4-Methyl-3-[[4-(3-pyridinyl)-2-pyrimidinyl]amino]benzoyl]beta-alanine methyl ester] were 61% and 73%.
With `Cc1ccc(C(=O)NCCCO)cc1Nc1nccc(-c2cccnc2)n1` [Example 30, N-(3-Hydroxypropyl)-4-methyl-3-[[4-(3-pyridinyl)-2-pyrimidinyl]amino]benzamide], the inhibition at 10 µM amounted to 37% against KDR and 57% at c-Abl.
Consider `CCN(CC)C(=O)c1ccc(C)c(Nc2nccc(-c3cccnc3)n2)c1` [Example 31, N,N-Diethyl-4-methyl-3-[[4-(3-pyridinyl)-2-pyrimidinyl]amino]benzamide], for which the figures for the inhibition at 10 µM on KDR and on c-Abl were 83% and 68%, respectively.
As for `Cc1ccc(C(=O)N[C@@H](Cc2ccccc2)C(=O)OC(C)(C)C)cc1Nc1nccc(-c2cccnc2)n1` [Example 32, N-[4-Methyl-3-[[4-(3-pyridinyl)-2-pyrimidinyl]amino]benzoyl]-(L)-phenylalanine 1,1-dimethylethyl ester], the inhibition at 10 µM against KDR turned out to be 37%; at c-Abl, 90%.
For the compound `Cc1ccc(C(=O)N[C@H](C)C(=O)OC(C)(C)C)cc1Nc1nccc(-c2cccnc2)n1` [Example 33, N-[4-Methyl-3-[[4-(3-pyridinyl)-2-pyrimidinyl]amino]benzoyl]-(D)-alanine 1,1-dimethylethyl ester], the inhibition at 10 µM at KDR is 51%; on c-Abl, 97%.
Taken in the same sequence, the figures for `Cc1ccc(C(=O)N2CCC(NC(=O)c3ccccc3)CC2)cc1Nc1nccc(-c2cccnc2)n1` [Example 34, N-[1-[4-Methyl-3-[[4-(3-pyridinyl)-2-pyrimidinyl]amino]benzoyl]-4-piperidinyl]benzamide] were 89% and 73%.
Take `Cc1ccc(C(=O)N2CCOCC2)cc1Nc1nccc(-c2cccnc2)n1` [Example 35, 4-[4-Methyl-3-[[4-(3-pyridinyl)-2-pyrimidinyl]amino]benzoyl]-morpholine]: the inhibition at 10 µM on KDR turned out to be 47%; on c-Abl, 27%.
